The values that follow come from patent US11911348B2, “Therapeutic agent for cancer” (THERAVALUES CORPORATION, priority 2014, dated 2024).

The subject of this assay is MC38 mouse colon cancer tumor. The experiment in a line: Tumor size of subcutaneously implanted MC38 mouse colon cancer in mice. The format is in vivo. The source says:
As the test animals, 6-week old […] mice (female, weighed around 20 g, CLEA Japan, Inc.) were purchased, and used after being acclimated to the environment for two to five days. • (2) Transplantation Method
In the right abdomen of the test animals, 5×10^5 mouse colon cancer cell lines (MC38) were subcutaneously implanted by using a 27 G needle. • (3) Administration method
Into the mice (n=[…] to 8) to which the colon cancer cell lines (MC 38) had been inoculated, every day from the 3rd day after the inoculation to the last day of the experiment, 200 μl of a curcumin solution prepared by suspending a commercially available curcumin 10%-containing pharmaceutical preparation (Theracurmin® CR-031P, manufactured by Theravalues Corporation) (Examples 1 to 4) in water or by suspending the synthetic curcumin-HPMC complex prepared as described below (Example 5) in water (prepared so that the curcumin content as 5 mg or 30 mg per 1 kg body weight) was forcibly administered orally to the mice using a feeding needle.
In addition, as so the control groups, a curcumin single administration group (Comparative Examples 1, 4, 6, and 10) in a case where Rat IgG2b (clone: LTF-2 manufactured by Bio X Cell) was intraperitoneally administered in place of the anti-PD-L1 antibody (clone: 10F·9G2 manufactured by Bio X Cell) or the anti-PD-1 antibody (clone: RMP1-14 manufactured by Bio X. Cell); an anti-PD-L1 antibody single administration group (Comparative Examples 2, 5 and 7) in a case where water was administered in place of the curcumin solution, and an anti-PD-L1 antibody was administered; an anti-PD-1 antibody single administration group (Comparative Examples 9 and 11) in a case where water was administered in place of the curcumin solution, and an anti-PD-1 antibody was administered; and a water administration group (Comparative Example 3) in a case where water was administered in place of the curcumin solution, and Rat IgG2b (clone: LTF-2 manufactured by Bio X Cell) was administered in place of the anti-PD-L1 antibody were prepared. • (4) Evaluation of Tumor Size
The tumor size of the test animals was measured by measuring the long diameter and the short diameter of the tumor with a vernier caliper every 2 to 4 days, and calculated by the following equation. Tumor size=the long diameter×the short diameter×the short diameter÷2 (Mathematical Formula 1) • (5) Preparation method of synthetic curcumin-HPMC complex

`COc1cc(/C=C/C(=O)/C=C(O)/C=C/c2ccc(O)c(OC)c2)ccc1O` [curcumin]: the “size of the MC38 mouse colon cancer tumor compared with the control” value runs as follows: (FIG. 3, curcumin 5 mg/kg/mouse singly administered) “same size as that of the control”; (FIG. 4, curcumin 30 mg/kg/mouse singly administered) “same size as that of the control”. For the same molecule, the “antiproliferative effect of the colon cancer tumor” value by setting is: (FIG. 3, curcumin 5 mg/kg/mouse, anti-PD-L1 antibody on 7th, 10th, 13th days) “not recognized”; (FIG. 4, curcumin 30 mg/kg/mouse, anti-PD-L1 antibody) “not recognized”.
